Laboratory results taken from patent publication US20120220554A1, “Combretastatins for Prevention of Posterior Capsule Opacification” (OXIGENE, INC., priority 2010, published 2012).

Assays:
Assay type in all cases: cell-based, bovine
BIE cells = assay: Ki67 immunofluorescence (cell proliferation) in BIE cells
Procedure: BMI-immortalized bovine lens epithelial cells (BIE cell line, produced in Roy Quinlan's Laboratory, University of Durham, UK), were seeded onto 13 mm round coverslips in 6-well tissue culture plates in 10% fetal calf serum (FCS)-supplemented tissue culture medium (Sigma-Aldrich, UK) and kept at 37° C., 5% CO2 overnight. The next morning, they were exposed to 1 μM CA4P diluted in 10% FCS-supplemented medium for 30 min, after which the cells were returned to 10% FCS-supplemented medium. After 48 h, the prevalence of Ki67 positive cells was assessed by immunofluorescence.
BIE cells on coverslips were rinsed three times in PBS, followed by a single 20 min fixation in a 1:1 mix of methanol and acetone, three rinses in PBS/0.2 g/L BSA/0.2 g/L Na Azide and a single 20 min blocking step in 10% goat serum (Sigma-Aldrich, UK) diluted in PBS/BSA/NaAzide. The cells were then exposed to primary antibody (Ki-67: mouse monoclonal, 1/100, MIB-1 (DAKO, Denmark)) for 1 h at room temperature, after which they were rinsed three times in PBS/BSA/NaAzide and exposed to secondary antibody (goat anti-mouse IgG FITC-conjugated, 1/100; DAPI, 1/1000 (Sigma-Aldrich, UK)) for 1 h at room temperature in the dark. After three last rinses in PBS/BSA/NaAzide, the cells were plated onto microscope slides (VWR International, Belgium) and examined using a Zeiss LSM 510 Meta confocal microscope and its associated software. Ki-67 positive cells were counted out of a total of between 200 and 500 cells per coverslip, for two coverslips for each of three independent repeats, and expressed as the average percentage of Ki-67 positive cells out of the total number of cells counted (as determined by DAPI staining). Significant differences between control and treated cells were assessed by Chi^2-test.

Phosphorylated p38 = Phosphorylated p38 level; settings: CA4P treatment (data not shown)
Procedure: (§1) Phospho-Erk ½ levels were elevated immediately after the end of CA4P exposure in both control and treated cells and decreased 1 h after the end of CA4P exposure in both control and treated cells (FIG. 7). […] Therefore, it could be hypothesized that, in primary cells, a general stress response due to dissection will mask CA4P's effect on Erk phosphorylation. Phosphorylated p38 and JNK levels were not affected by CA4P treatment (data not shown).

phospho-Erk in BIE cells = assay: Erk phosphorylation immunoblot in BIE cells
Procedure: as §1

ERK 1/2 (p42 and p44) = assay: Erk 1/2 phosphorylation immunoblot in primary lens epithelial cells; settings: primary cells after dissection; 30 min 1 mM CA4P; immediately and 1 h after end of exposure (FIG. 7)
From the text: Bovine eyes were obtained from Coast and County Meat Group (Felling, UK) on the day of culling and lenses were dissected out of the eyes under a sterile tissue culture hood as described below. After generous dousing in 70% ethanol, eyes were cut open using a major surgical blade (Swann-Morton, UK) via a single cut, parallel and posterior to the cornea-conjunctiva limit. The eye was then inverted and the vitreous removed. The lens was freed from the ciliary fibers and immediately placed anterior face down in a SYLGARD-covered (Dow Corning, Germany) well of a 12-well tissue culture plate (Greiner Bio-One, UK). The posterior side of the lens capsule was cut in a Y-shape fashion by a thin scalpel and the resulting flaps pulled back and pinned onto the SYLGARD. […]
Immediately after dissection, primary lens epithelial cells were exposed for 30 min to 1 mM CA4P diluted in 0% FCS medium, after which they were returned to 0% FCS-supplemented medium. […] After total protein quantification of the extracts by Bicinchoninic Acid (BCA) assay (ThermoScientific, UK), 20 μg of extract were loaded per lane of a 12% acrylamide denaturing gel, which was run at 200V for 40 min, followed by blotting onto a nitrocellulose membrane at 0.8 mA/cm^2 for 2 h and blocking in either milk (Erk 1/2) or BSA (GAPDH) in TTBS (0.2% Tween (vol/vol), 150 mM NaCl, 20 mM Tris.HCl pH 7.4) for 1 h at room temperature. […]

[1] = 48 h after 30 min exposure to 1 μM CA4P

COc1ccc(/C=C\c2cc(OC)c(OC)c(OC)c2)cc1OP(=O)(O)O [CA4P, combretastatin A-4 phosphate]
nuclear morphology (BIE cells; 30 h after exposure (data not shown)): changes in nuclear morphology, as well as multinucleated cells were detected
Ki67 negative (%) (BIE cells; [1]): 85.1 ± 5.7%
Ki67 positive (%) (BIE cells; [1]): 14.9 ± 5.7%
cell loss (BIE cells; by 48 h after exposure): cell loss is extensive
Phosphorylated p38 levels (Phosphorylated p38): not affected
phospho-Erk levels (phospho-Erk in BIE cells; 1 h after the end of CA4P exposure): returned to control levels
phospho-Erk levels (phospho-Erk in BIE cells; immediately after the end of CA4P exposure): elevated
Erk phosphorylation (ERK 1/2 (p42 and p44)): not affected
